Test results from patent publication US9084805B2, “Sialic acid to support the immune system in the elderly” (Nestec S.A., priority 2008, dated 2015).

How the values were obtained:
Type in all cases: in vivo, C57BL/6J mice
aged mice = assay: Delayed-type hypersensitivity (DTH) response, ear swelling after KLH elicitation, in aged mice; details: aged mice (19-months old), 0.8 weight-% N-acetylneuraminic acid in AlN-93 diet, vs non-supplemented AlN-93, n=10
Description: Specific pathogen-free male C57BL/6J mice (4-weeks old) were purchased from Janvier (France). Mice were housed under conventional circumstances (12 hours light/dark cycle, temperature 22° C., humidity 56%) and received water and semi-synthetic Kliba 3436 diet ad libitum. Until the age of 5 months, mice were maintained at 5 per cage and then they were individually caged. All conditions and handling of the animals were approved by the Nestle and state ethical committees with the agreement of the Swiss Federal Veterinary Advisor. 19-months old mice were randomized into 2 groups of 10 animals and were fed with a semi-synthetic AlN-93 diet either non-supplemented (group control AlN-93, n=10) or supplemented with SiAc (0.8 weight-% N-acetylneuraminic acid in the diet) (group SiAc, n=10). During the 42 days of trial, all mice were allowed to drink and eat ad libitum.
The DTH response was used as an in vivo measure of cellular immunity. […] At 24 hours post-elicitation, and during the following 5 days, both the non-elicited (left ear) and the elicited ears (right ear) were measured. DTH responses (KLH-PBS) were expressed as the magnitude of ear swelling, i.e. the change in ear thickness using the following formula: Δ in ear thickness=[elicited ear (right, KLH) ear sickness−non-elicited (left, PBS) ear sickness], where Δ in ear thickness=[post-elicitation−pre-elicitation ear thickness].

TGF-β2 = assay: Liver mRNA expression of TGF-β2 in aged mice (TaqMan low density array); details: 0.8 weight-% N-acetylneuraminic acid in diet for 42 days, vs non-supplemented AlN-93, n=8
Description: (§1) Specific pathogen-free male C57BL/6J mice (4-weeks old) were purchased from Janvier (France). Mice were housed under conventional circumstances (12 hours light/dark cycle, temperature 22° C., humidity 56%) and received water and semi-synthetic Kliba 3436 diet ad libitum. Until the age of 5 months, mice were maintained at 5 per cage and then they were individually caged. All conditions and handling of the animals were approved by the Nestle and state ethical committees with the agreement of the Swiss Federal Veterinary Advisor. […]
(§2) Mice were killed on day 42 of trial. The expression of genes involved in inflammatory processes was determined in the liver of aged mice that were supplemented or not with SiAc for 42 days. […]
(§3) Liver samples were transferred into 1 ml of RNA lysis buffer (Macherey-Nagel, Düren, Germany) and homogenized using Ribolyzer (Hybaid, Waltham, Mass., USA) with the following setting: power at 6 for 20 seconds. […] RNA quantification was achieved using the Ribogreen RNA Quantitation Kit (Molecular Probes; Eugene, Oreg. USA), and RNA quality was assayed using Agilent RNA 6000 Nano LabChip Kit (Agilent Technologies, Palo Alto, USA). […]

HO-1 = assay: Liver mRNA expression of HO-1 in aged mice (TaqMan low density array); details: 0.8 weight-% N-acetylneuraminic acid in diet for 42 days, vs non-supplemented AlN-93, n=8
Description: as §1, §2, §3

SOD2 = assay: Liver mRNA expression of SOD2 in aged mice (TaqMan low density array); details: 0.8 weight-% N-acetylneuraminic acid in diet for 42 days, vs non-supplemented AlN-93, n=8
Description: as §1, §2, §3

Compound: CC(=O)N[C@H]1[C@H]([C@H](O)[C@H](O)CO)OC(O)(C(=O)O)C[C@@H]1O (stereo partly shown) [SiAc, N-acetylneuraminic acid]
- cell-mediated immune response (DTH response, FIG. 1) (aged mice): improved
- expression of gene encoding anti-inflammatory molecule TGF-β2 (FIG. 2) (TGF-β2): increased expression
- expression of gene encoding HO-1, defence against oxidative damage (FIG. 2) (HO-1): increased expression
- expression of gene encoding SOD2, defence against oxidative damage (FIG. 2) (SOD2): increased expression
